# According to patent publication US5110976A, “Insecticidal composition comprising more than one active ingredient” (priority 1985, dated 1992):
# “Also recorded” adds a separate entry of the source.
# Columns and labels:
# Musca domestica [1] = assay: Filter paper disc contact test (Table 11); type: in vivo, house fly (Musca domestica); settings: Musca domestica, 24 h
# Experimental: In Table 1 the activity of various stereoisomers of cypermethrin on the house fly (Musca domestica) is shown.
# (§1) The active ingredient is dissolved in a 1:2 mixture of oil and acetone; filter paper discs (Whatman No. 1, diameter 9 cm) are impregnated with the solutions of the corresponding stereoisomers and enantiomer-pairs, respectively. The acetone is allowed to evaporate, whereupon the insects are exposed to filter papers discs placed in Petri-dishes. Three parallels are used on each dose and 15 insects are placed into each Petri-dish. The percental mortality is determined after 24 hours. The corrected percent mortality is calculated by means of the Abbot Formula.
# Tribolium confusum [2] = assay: Contact test on Tribolium confusum (Table 12); type: in vivo
# Experimental: as §1
# It appears from Table 12 that the increased activity shown in Example 41 is due to the synergistic effect of the trans-isomers to Tribolium confusum.
# Tribolium confusum [3] = assay: Contact test, mixtures of Ia and Ib of various ratio (Table 13); type: in vivo, flour beetle (Tribolium confusum); settings: Tribolium confusum, 24 h
# Experimental: as §1
# In Table 13 the insecticidal effect of mixtures of enantiomer-pairs Ia and Ib of various ratio is shown on flour beetle (Tribolium confusum). The test method is that disclosed in Example 43.
# Colorado potato beetle = assay: Topical test on Colorado potato beetle (Table 14); type: in vivo, Colorado potato beetle (Leptinotersa decemlineata), imago
# Experimental: In Table 14 the activity on Colorado potato beetle is shown.
# The test materials are dissolved in 2-ethoxyethanol (Cellosolve). One 0.3 μl drop of the solution is applied to the abdominal sterna of the imago. The treatment is carried out by using 2 parallels and 10 insects for each dose. […]
# Acanthoscelides obtectus = assay: Comparative contact test (Table 15); type: in vivo, bean weevil (Acanthoscelides obtectus), imago; settings: Acanthoscelides obtectus, 24 h
# Experimental: as §1
# (§2) The comparative test of Ia, Ib and a 40:60 mixture of Ia:Ib is carried out on bean weevil (Acanthoscelides obtectus), flour-beetle, (Tribolium confusum), house fly (Musca domestica) and sheep maggot fly (Lucillia sericata). The test method described is Example 41.
# tribolium confusum [4] = assay: Comparative contact test (Table 15); type: in vivo, flour-beetle (Tribolium confusum), imago; settings: 24 h
# Experimental: as §1, §2
# Musca domestica [5] = assay: Comparative contact test (Table 15); type: in vivo, house fly (Musca domestica), imago; settings: 24 h
# Experimental: as §1, §2
# Lucillia sericata = assay: Comparative contact test (Table 15); type: in vivo, sheep maggot fly (Lucillia sericata), imago; set-up: key: % mortality after 24 h, Abbott-corrected; settings: 1440 min
# Experimental: as §1, §2
# T. confusum = assay: Activity as function of time, toxic symptoms (Table 16); type: in vivo, flour beetle (T. confusum), imagos
# Experimental: as §1
# Activity of cypermethrin stereoisomer-pairs as function of time on flour beetle (T. Confusum).
# Flour beetle (T. confusum) imagos are exposed in Petri-dishes according to the method described in Example 43. For each dose 3 parallels are used and 15 animals are applied for each parallel test. In each point of time the insects lying on their backs are counted and the percental results are expressed in Table 16.
# Hyphantria cunea = assay: Topical test on fall webworm (Table 18); type: in vivo, fall wetworm (Hyphantria cunea), L7-L8 larvae; settings: Hyphantria cunea, topical, 24 h
# Experimental: The active ingredients are dissolved in 2-ethoxy-ethanol and the solutions are applied in the form of 0.2 μl droplets onto the back of fall wetworm (Hyphantria cunea) of L7 -L8 larvae stage. The treated worms are placed on strawberry leaves in Petri-dishes. The test is carried out by using […], 2 parallels and 10 insects for each dose. The killed worms are counted after 24 hours and the percental mortality rate is calculated.
# Tetranychus urticae = assay: Potter Tower spray on mite-infested leaves (Table 19); type: in vivo, mites (Tetranychus urticae); settings: Tetranychus urticae, 24 h, mortality after 24 hours; read-out: approx. LD50
# Experimental: Leaves already infested with mites (Tetranychus urticae) were sprayed under Potter Tower. Mortality after 24 hours on the treated leaves was compared with the control.
compound,measurement,setting,value
CC1(C)[C@H](C(=O)O[C@H](C#N)c2cccc(Oc3ccccc3)c2)[C@@H]1C=C(Cl)Cl (relative stereo) [Ia],mortality at 40 µg/disc,Musca domestica [1]; 0.04 mg/disc,44%
same,mortality at 110 µg/disc,Musca domestica [1]; 0.11 mg/disc,84%
same,mortality at 330 µg/disc,Musca domestica [1]; 0.33 mg/disc,100%
same,mortality at 1000 µg/disc,Musca domestica [1]; 1.00 mg/disc,100%
same,mortality at 3000 µg/disc,Musca domestica [1]; 3.00 mg/disc,100%
same,mortality at 330 µg/disc,"Tribolium confusum [2]; Tribolium confusum, 24 h, 0.33 mg/disc",65%
same,mortality at 1000 µg/disc,"Tribolium confusum [2]; Tribolium confusum, 24 h, 1.00 mg/disc",94%
same,mortality at 3000 µg/disc,"Tribolium confusum [2]; Tribolium confusum, 24 h, 3.00 mg/disc",100%
same,synergism between the members of the enantiomer-pair,Tribolium confusum [2]; in vivo,does not take place; also recorded: no similar synergism takes place
same,mortality at 60 µg/disc,Tribolium confusum [3]; 0.06 mg/disc,14%
same,mortality at 250 µg/disc,Tribolium confusum [3]; 0.25 mg/disc,54%
same,mortality at 20 µg/disc,Tribolium confusum [3]; 0.02 mg/disc,0%
same,mortality at 1000 µg/disc,Tribolium confusum [3]; 1.00 mg/disc,100%
same,mortality at 0.05 µg/beetle,"Colorado potato beetle; Leptinotarsa decemlineata, topical, read-out: 24 hours' mortality %, 0.05 μg/beetle",50%
same,mortality at 0.1 µg/beetle,"Colorado potato beetle; Leptinotarsa decemlineata, topical, read-out: 24 hours' mortality %, 0.10 μg/beetle",55%
same,mortality at 0.2 µg/beetle,"Colorado potato beetle; Leptinotarsa decemlineata, topical, read-out: 24 hours' mortality %, 0.20 μg/beetle",75%
same,mortality at 0.4 µg/beetle,"Colorado potato beetle; Leptinotarsa decemlineata, topical, read-out: 24 hours' mortality %, 0.40 μg/beetle",80%
same,comparative activity,Colorado potato beetle; imago of Colorado potato beetle,more active than Ib
same,mortality at 20 µg/disc,Acanthoscelides obtectus; 0.02 mg/disc,10%
same,mortality at 70 µg/disc,Acanthoscelides obtectus; 0.07 mg/disc,37%
same,mortality at 220 µg/disc,Acanthoscelides obtectus; 0.22 mg/disc,63%
same,mortality at 670 µg/disc,Acanthoscelides obtectus; 0.67 mg/disc,95%
same,mortality at 2000 µg/disc,Acanthoscelides obtectus; 2.0 mg/disc,100%
same,mortality at 6000 µg/disc,Acanthoscelides obtectus; 6.0 mg/disc,100%
same,mortality at 20 µg/disc,tribolium confusum [4]; 0.02 mg/disc,0%
same,mortality at 70 µg/disc,tribolium confusum [4]; 0.07 mg/disc,18%
same,mortality at 220 µg/disc,tribolium confusum [4]; 0.22 mg/disc,51%
same,mortality at 670 µg/disc,tribolium confusum [4]; 0.67 mg/disc,100%
same,mortality at 2000 µg/disc,tribolium confusum [4]; 2.0 mg/disc,100%
same,mortality at 6000 µg/disc,tribolium confusum [4]; 6.0 mg/disc,100%
same,mortality at 20 µg/disc,Musca domestica [5]; 0.02 mg/disc,36%
same,mortality at 70 µg/disc,Musca domestica [5]; 0.07 mg/disc,63%
same,mortality at 220 µg/disc,Musca domestica [5]; 0.22 mg/disc,88%
same,mortality at 670 µg/disc,Musca domestica [5]; 0.67 mg/disc,100%
same,mortality at 2000 µg/disc,Musca domestica [5]; 2.0 mg/disc,100%
same,mortality at 6000 µg/disc,Musca domestica [5]; 6.0 mg/disc,100%
same,mortality,Lucillia sericata; 0.02 mg/disc,0
same,mortality,Lucillia sericata; 0.07 mg/disc,30
same,mortality,Lucillia sericata; 0.22 mg/disc,29
same,mortality,Lucillia sericata; 0.67 mg/disc,57
same,mortality,Lucillia sericata; 2.0 mg/disc,60
same,mortality,Lucillia sericata; 6.0 mg/disc,65
same,% of insects showing toxic symptoms,T. confusum; 30 minutes,0%
same,% of insects showing toxic symptoms,"T. confusum; 30 minutes, 0.33 mg/disc",0%
same,% of insects showing toxic symptoms,"T. confusum; 30 minutes, 1.00 mg/disc",0%
same,% of insects showing toxic symptoms,"T. confusum; 30 minutes, 3.00 mg/disc",33%
same,% of insects showing toxic symptoms,T. confusum; 60 minutes,0%
same,% of insects showing toxic symptoms,"T. confusum; 60 minutes, 0.33 mg/disc",0%
same,% of insects showing toxic symptoms,"T. confusum; 60 minutes, 1.00 mg/disc",16%
same,% of insects showing toxic symptoms,"T. confusum; 60 minutes, 3.00 mg/disc",88%
same,% of insects showing toxic symptoms,T. confusum; 120 minutes,0%
same,% of insects showing toxic symptoms,"T. confusum; 120 minutes, 0.33 mg/disc",14%
same,% of insects showing toxic symptoms,"T. confusum; 120 minutes, 1.00 mg/disc",66%
same,% of insects showing toxic symptoms,"T. confusum; 120 minutes, 3.00 mg/disc",100%
same,% of insects showing toxic symptoms,T. confusum; 180 minutes,10%
same,% of insects showing toxic symptoms,"T. confusum; 180 minutes, 0.33 mg/disc",49%
same,% of insects showing toxic symptoms,"T. confusum; 180 minutes, 1.00 mg/disc",100%
same,% of insects showing toxic symptoms,"T. confusum; 180 minutes, 3.00 mg/disc",100%
same,mortality at 0.023 µg/disc,Hyphantria cunea; 0.023 (μg/disc),40%
same,mortality at 0.047 µg/disc,Hyphantria cunea; 0.047 (μg/disc),60%
same,mortality at 0.094 µg/disc,Hyphantria cunea; 0.094 (μg/disc),65%
same,mortality at 0.188 µg/disc,Hyphantria cunea; 0.188 (μg/disc),80%
same,mortality at 0.375 µg/disc,Hyphantria cunea; 0.375 (μg/disc),90%
same,LC50,Tetranychus urticae,~0.056 µg/mL
